From patent US20260240683A1, “MOLECULAR LINKERS” (CWAN TECHNOLOGIES PTY LTD, priority 2023, published 2026) come the findings set out here.

Data set [1] can be described thus: Ru(bpy)3 diffusion through debrided bovine cadaver corneal stroma. The conditions noted are these: PBS solution containing 0.5 mM Ru(bpy)3; 800 μm thick bovine cadaver corneal stroma; within 6 minutes. In kind it is in vitro ADME. Here is the method:
10 fresh bull eyes were obtained from an abattoir (<10 hours old, stored at 4° C.). Using a digital caliper, the thickness of the corneas was determined to be within the range of 740 μm to 820 μm. The epithelium of the eyes was debrided with an 8 mm biopsy punch and scraped-off with a scalpel blade.
[…] Excess Ru(bpy)3 solution was removed by blotting using a fresh Kimwipe tissue.
Corneas were frozen on the surface of an aluminium block at −20° C. for 2 minutes (FIG. 7B). Transverse (bisecting) cross-sections of cornea were prepared by cutting a 1 mm thick section using a razor blade. The corneal cross-section was mounted on a glass slide to allow visualization of the cross-sectional area of the corneal stroma (FIG. 7C). Ru(bpy)3 was visualized through a red filter with illumination with a 450 nm LED light (FIG. 7).
The rate of diffusion of Ru(bpy)3 through both fresh bovine cadaver corneal stroma and through a thermally gelled 12% gelatin hydrogel (as a model corneal stromal matrix), was studied.

Data set [2] in a line: Diffusion into thermally gelled 12% gelatin gel disc (A452 read-out), model corneal stroma. In kind it is physicochemical. As to the method: A 12% Gelatin (Sigma G1890) Type A, 300 Bloom solution was prepared in PBS (pH7.4) by melting at 50° C. 60 μL was added to an 8.5 mm (diameter)×1 mm (deep) round Teflon mould. The Gelatin was allowed to set thermally for 10 min at 18.5° C. At 10 min, 60 μL 0.5 mM Ru(bpy)3 (0.5 mM solution in PBS) is added to the top of the thermally gelled 12% gelatin disc. The gelatin disc was covered with foil during diffusion time. Excess solution was blotted from the top of the gel using a Kimwipe. Remove gelled disc using spatula, add to 940 μL of PBS @55° C. Melt gel (30 sec)—add solution to cuvette, read A452.
If diffusion is expressed as a percentage of the total disc volume equilibrated with the applied 0.5 mM Ru(bpy)3 solution, then, assuming total mixing of the applied 60 μL solution with the 60 μL gelatin disc, 100% diffusion would represent an A452 of 0.205 [0.221−0.016=gelatin−PBS blank)]. So, diffusion to 30% of the hydrogel depth/thickness (in this case representing ca. 300 μm) would be attained in about 2.3 min. This is the desired depth of penetration of a crosslinking agent in the human cornea (by comparison with Riboflavin-based CXL methods, which require 30 minutes of diffusion).

Data set [3] in a line: Diffusion of Ru(bpy)3+SPS and photochemical crosslinking of 1 mm 12% gelatin hydrogel (weight after 65° C. melt). In kind it is physicochemical. Here is the method: Method: 12% Gelatin (Sigma G1890) Type A 300 Bloom in PBS (pH 7.4), was melted at 50° C. and 60 μL added to an 8.5 mm (diameter) disc×1 mm (deep) Teflon mould. The gelatin was allowed to set thermally for 10 min at 18.5° C. 60 μL of Ru(bpy)3/SPS solution (either a 0.5 mM Ru(bpy)3+50 mM SPS; a 1.0 mM Ru(bpy)3+50 mM SPS or a 2.0 mM Ru(bpy)3+50 mM SPS) was added and allowed to diffuse into the gel disc for varying times (0, 2, 4, 6, 8, 10, 14 min). Excess liquid was blotted from the top surface of the mould. At the end point of the diffusion period, the thermally set gelatin hydrogel was illuminated using a 3M ESPE blue LED lamp (1,200 mW/cm^2) for 5 sec at 1 cm distance from the light guide tip. The crosslinked gelatin hydrogel was weighed on a microbalance before being placed into a 65° C. water bath for 30 sec. Excess liquid was removed from the crosslinked hydrogel and it was again weighed to measure residual crosslinked gelatin hydrogel. A plot was prepared showing % crosslinked gelatin vs diffusion time (zero to 14 min).
Aim: To determine the time required for a solution containing Ru(bpy)3+SPS to diffuse through a 1 mm thick sheet of thermally-gelled gelatin and then to form covalent crosslinks between gelatin molecules, thus rendering the hydrogel resistant to subsequent melting at high temperature. […]

Data set [4] can be described thus: Photochemical crosslinking of corneal stroma using 3D template mould. More on the design: species or system bovine. The conditions noted are these: 300 μL, 10 min diffusion, 20 sec 450 nm blue LED at 1 cm; 1 mM Ru(bpy)3 with or without 50 mM SPS. As to the method: The entire epithelium was debrided from a cornea. 300 μL of 1 mM Ru(bpy)3+50 mM SPS was applied to the anterior corneal surface for a diffusion time of 10 minutes (FIG. 9A). The cornea was wrapped over a metal piping nozzle, acting as a mould, and irradiated for 20 seconds using 450 nm blue LED dental lamp at a distance of 1 cm from the light guide tip (FIG. 9B).
A cornea was subject to the crosslinking protocol described in Example 3A, except that sodium persulphate (SPS) was omitted. […] In its absence, singlet oxygen radical production by short (20 sec) blue light irradiation of Ru(bpy)3 in aqueous solution is insufficient to cause any measurable covalent crosslinking of endogenous stromal proteins. In contrast, in its presence, crosslinking of endogenous corneal proteins and “molecular linkers” occurs rapidly and quantitatively.

Data set [5] is described as follows: Riboflavin solubility at 0.1% in PBS. In kind it is physicochemical.

Take `[Cl-].[Cl-].[Ru+2].c1ccc(-c2ccccn2)nc1.c1ccc(-c2ccccn2)nc1.c1ccc(-c2ccccn2)nc1` [Ru(bpy)3, ruthenium (tris)bipyridyl chloride]: in data set [1], the “depth of free diffusion through corneal stroma” value was found to be 400 μm. Further, the “time to diffuse to 30% of the hydrogel depth/thickness (ca. 300 μm)” value in data set [2] (0.5 mM Ru(bpy)3 in PBS, 60 μL on 1 mm deep 12% gelatin disc) was “about 2.3 min”. In addition, the “time to diffuse through the entire 1.0 mm thickness of 12% (w/v) gelatin hydrogel” value in data set [3] (Ru(bpy)3+50 mM SPS solutions (0.5, 1.0, 2.0 mM)) was at most 6 min. Further, the “covalent crosslinking of gelatin hydrogel after the diffusion step” value in data set [3] (Ru(bpy)3+SPS, 5 second illumination with 450 nm blue LED lamp) is reported as “entire gelatin hydrogel can be covalently crosslinked”. The “formation of templated 3D structure of cornea after photo-crosslinking on mould” value in data set [4] is reported as “no mould template structure was formed”.

Take `Cc1cc2nc3c(=O)[nH]c(=O)nc-3n(C[C@H](O)[C@H](O)[C@H](O)CO)c2cc1C` [Riboflavin, riboflavin]: the “rate of diffusion through 12% gelatin hydrogel compared with 0.5 mM Ru(bpy)3 solution” value in data set [2] (Riboflavin 0.1% (2.6 mM)) was “slightly slower”. In addition, the “solubility at 0.1% (2.6 mM)” value is listed as “=2.6 mM in PBS (pH 7.4) - not fully soluble in PBS*” in data set [5] (PBS (pH 7.4)) and “*Added 1 μL of 10N NaOH to 2 ml of 0.1% solution in PBS - took pH to ca. 8.5 (by pH paper test). Riboflavin solution was now fully soluble at 0.1% (2.6 mM) at RT” in data set [5] (PBS with NaOH added, pH ca. 8.5, RT).
